Counter-ions that a name gives are not always drawn.

We go through 3 compounds from patent US20060205769A1, “Piperidine or 8-aza-bicyclo[3.2.1]oct-3-yl derivatives useful as modulators of chemokine receptor activity” (priority 2003, published 2006).

In this experiment the target is T1, recombinant human CCR5 receptor (Homo sapiens, UniProt P51681).
T1 construct: expressed in transfected cells; host or cells: Chinese hamster ovary (CHO) cells; membranes
Kind of experiment: in vitro radioligand binding assay: inhibition of binding of iodinated MIP-1α to membranes of CHO cells expressing CCR5 (scintillation proximity). The settings on record: displacement of 0.1 nM iodinated MIP-1α; negative log (base 10) of IC50; average if tested more than once. The method, then:
The ability of compounds to inhibit the binding of MIP-1α was assessed by an in vitro radioligand binding assay. Membranes were prepared from Chinese hamster ovary cells which expressed the recombinant human CCR5 receptor. These membranes were incubated with 0.1 nM iodinated MIP-1α, scintillation proximity beads and various concentrations of the compounds of the invention in 96-well plates. The amount of iodinated MIP-1α bound to the receptor was determined by scintillation counting. Competition curves were obtained for compounds and the concentration of compound which displaced 50% of bound iodinated MIP-1α was calculated (IC50).
In Table IV the results are presented as Pic50 values. A Pic50 value is the negative log (to base 10) of the IC50 result, so an IC50 of 1 μM (that is 1×10^−6M) gives a Pic50 of 6. If a compound was tested more than once then the data below is an average of the probative tests results.
On the technique in general: In a scintillation proximity assay essentially only radioactivity close to the scintillant gives light.

T1 sequence (P51681 whole entry): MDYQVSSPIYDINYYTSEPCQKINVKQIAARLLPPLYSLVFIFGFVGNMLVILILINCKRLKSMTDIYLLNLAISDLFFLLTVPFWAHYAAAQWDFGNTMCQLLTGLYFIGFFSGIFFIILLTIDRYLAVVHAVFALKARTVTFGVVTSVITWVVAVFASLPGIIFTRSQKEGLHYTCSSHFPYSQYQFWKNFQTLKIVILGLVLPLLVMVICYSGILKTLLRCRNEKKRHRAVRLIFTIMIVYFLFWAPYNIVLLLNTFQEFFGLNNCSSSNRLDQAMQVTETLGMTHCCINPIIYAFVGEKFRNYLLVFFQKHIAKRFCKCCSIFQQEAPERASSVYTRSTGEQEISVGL

Broadly, the IC50 is the concentration that gives 50% inhibition. With `CS(=O)(=O)N1CCC([C@@H](CCN2CCC(CCS(=O)(=O)C3CCNCC3)CC2)c2cc(F)cc(F)c2)CC1` [Table I Compound 2], the IC50 is 39.8 nM.
Under `CS(=O)(=O)N1CCC([C@@H](CCN2CCC(CCS(=O)(=O)C3CCN(S(=O)(=O)C(F)(F)F)CC3)CC2)c2cc(F)cc(F)c2)CC1` [Table I Compound 3] stands 3.98 nM.
As for `CS(=O)(=O)c1ccc([C@@H](CCN2CCC(CCS(=O)(=O)N3CCCCC3)CC2)c2cc(F)cc(F)c2)cc1` [Table III Compound 1, (R)-1-{3-(3,5-difluorophenyl)-3-[4-(methylsulfonyl)phenyl]propyl}-4-[2-(piperidin-1-ylsulfonyl)ethyl]piperidine hydrochloride], the IC50 was 3.16 nM.
